Test results reported in the supplement of paper PMC4862054.

Experiments:
Settings in all cases: incubation time: 72 h
DU-4475 = test: drug sensitivity score (DSS), CellTox Green (DSS (AUC-based score)); higher = stronger drug effect (viability inhibition or cytotoxicity); extreme values may be limits of the assay
Method in brief: (§1)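 A drug sensitivity score was derived from the area under each fitted dose-response curve. Breast cancer cells (20 µl suspension) were seeded onto compound in 384-well plates, using 5 concentrations 10-fold apart over a compound-specific 10,000-fold range, and incubated 72 h. Readouts were CellTox Green fluorescence and then CellTiter-Glo luminescence, with every plate normalised to 0.1 % DMSO and a positive kill control.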

MDA-MB-436 = test: as above
Method in brief: as §1

CAL-51 [1] = test: as above
Method in brief: as §1

HDQ-P1 = test: as above
Method in brief: as §1

BT-549 = test: as above
Method in brief: as §1

MDA-MB-468 [2] = test: as above
Method in brief: as §1

MFM-223 = test: as above
Method in brief: as §1

CAL-148 [3] = test: as above
Method in brief: as §1

CAL-120 [4] = test: as above
Method in brief: as §1

HCC1599 = test: as above
Method in brief: as §1

HCC1143 [5] = test: as above
Method in brief: as §1

BT-474 = test: as above
Method in brief: as §1

MCF-10A = test: as above
Method in brief: as §1

Hs578T [6] = test: as above
Method in brief: as §1

MDA-MB-453 = test: as above
Method in brief: as §1

CAL-85-1 [7] = test: as above
Method in brief: as §1

HCC1937 [8] = test: as above
Method in brief: as §1

MDA-MB-231 = test: as above
Method in brief: as §1

SK-BR-3 = test: normalised viability (% of control), CellTiter-Blue; higher = more viable cells (about 100 = DMSO control)
Procedure: (§2)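 DSRT, CellTiter-Blue viability, 72 h incubation. Signal is normalised to DMSO and benzethonium chloride controls. Value is the normalised response at dose 3.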

CAL-51 [9] = test: as above
Procedure: as §2

MDA-MB-468 [10] = test: as above
Procedure: as §2

CAL-148 [11] = test: as above
Procedure: as §2

CAL-120 [12] = test: as above
Procedure: as §2

HCC1143 [13] = test: as above
Procedure: as §2

Hs578T [14] = test: as above
Procedure: as §2

CAL-85-1 [15] = test: as above
Procedure: as §2

HCC1937 [16] = test: as above
Procedure: as §2

SMILES | drug sensitivity score (DU-4475) | drug sensitivity score (MDA-MB-436) | drug sensitivity score (CAL-51 [1]) | drug sensitivity score (HDQ-P1) | drug sensitivity score (BT-549) | drug sensitivity score (MDA-MB-468 [2]) | drug sensitivity score (MFM-223) | drug sensitivity score (CAL-148 [3]) | drug sensitivity score (CAL-120 [4]) | drug sensitivity score (HCC1599) | drug sensitivity score (HCC1143 [5]) | drug sensitivity score (BT-474) | drug sensitivity score (MCF-10A) | drug sensitivity score (Hs578T [6]) | drug sensitivity score (MDA-MB-453) | drug sensitivity score (CAL-85-1 [7]) | drug sensitivity score (HCC1937 [8]) | drug sensitivity score (MDA-MB-231) | normalised viability (SK-BR-3; 400 nM) [%] | normalised viability (CAL-51 [9]; 40 nM) [%] | normalised viability (MDA-MB-468 [10]; 400 nM) [%] | normalised viability (CAL-148 [11]; 40 nM) [%] | normalised viability (CAL-120 [12]; 400 nM) [%] | normalised viability (HCC1143 [13]; 400 nM) [%] | normalised viability (Hs578T [14]; 400 nM) [%] | normalised viability (CAL-85-1 [15]; 40 nM) [%] | normalised viability (HCC1937 [16]; 400 nM) [%] | normalised viability (SK-BR-3; 100 nM) [%] | normalised viability (CAL-51 [9]; 10 nM) [%] | normalised viability (MDA-MB-468 [10]; 100 nM) [%] | normalised viability (CAL-148 [11]; 10 nM) [%] | normalised viability (CAL-120 [12]; 100 nM) [%] | normalised viability (HCC1143 [13]; 100 nM) [%] | normalised viability (Hs578T [14]; 100 nM) [%] | normalised viability (CAL-85-1 [15]; 10 nM) [%] | normalised viability (HCC1937 [16]; 100 nM) [%]
N[C@@H](CSC(c1ccccc1)(c1ccccc1)c1ccccc1)C(=O)O [S-trityl-L-cysteine] | 0 | 0 | 0 | 0 | 0 | 0 | 0 | 0 | 0 | 0 | 0 | 0 | 0 | 0 | 0 | 0 | 3.46 | 0 | 95.8 | 87.4 | 101 | 106 | 110 | 122 | 92.2 | 101 | 81.5 | – | – | – | – | – | – | – | – | –
CN(N=O)C(=O)N[C@@H](C=O)[C@@H](O)[C@H](O)[C@H](O)CO [Streptozocin] | 0 | 0 | 0 | 0 | 0 | 3.14 | 0 | 0 | 0 | 0 | 0 | 0 | 0 | 0 | 0 | 0 | 0 | 0 | – | – | – | – | – | – | – | – | – | 95.7 | 109 | 106 | 99.6 | 105 | 101 | 102 | 105 | 90.7
CN[C@@H]1C[C@H]2O[C@@](C)([C@@H]1OC)n1c3ccccc3c3c4c(c5c6ccccc6n2c5c31)C(=O)N[C@H]4O [UCN-01] | 4.48 | 0 | 17 | 14.7 | 9.46 | 0 | 6.67 | 3.4 | 9.11 | 0 | 8.74 | 7.59 | 21.6 | 17.7 | 1.04 | 20.2 | 0 | 19 | – | – | – | – | – | – | – | – | – | 44.2 | 97.5 | 56.2 | 98.5 | 30.4 | 50.2 | 14.4 | 86.9 | 42
Clc1ccc(Nc2nnc(Cc3ccncc3)c3ccccc23)cc1 [Vatalanib] | 0 | 0 | 0 | 0 | 0 | 0 | 0 | 1.43 | 0 | 0 | 0 | 0 | 2.74 | 0 | 0 | 0 | 0 | 0 | – | – | – | – | – | – | – | – | – | 66.5 | 101 | 100 | 84.4 | 79.7 | 78.9 | 100 | 97.3 | 112
CCC1=C[C@@H]2CN(C1)Cc1c([nH]c3ccccc13)[C@@](C(=O)OC)(c1cc3c(cc1OC)N(C)[C@H]1[C@@](O)(C(=O)OC)[C@H](OC(C)=O)[C@]4(CC)C=CCN5CC[C@]31[C@@H]54)C2 [Vinorelbine] | 0 | 3.27 | 24.9 | 0 | 4.21 | 5.08 | 12.7 | 9.47 | 1.84 | 2.9 | 0 | 10 | 23.7 | 23.3 | 0 | 11.7 | 0 | 18.1 | – | – | – | – | – | – | – | – | – | 15.7 | 99.9 | 39.9 | 105 | 30.6 | 54.4 | 28.7 | 91.3 | 28
Oc1nc(-c2ccc(C(F)(F)F)cc2)nc2c1CSCC2 [XAV-939] | 0 | 0 | 0 | 3.77 | 0 | 0 | 0 | 0 | 0 | 0 | 0 | 0 | 0 | 3.23 | 0 | 0 | 0 | 0 | – | – | – | – | – | – | – | – | – | 112 | 98.8 | 107 | 92.6 | 97.2 | 77.6 | 88.3 | 96.3 | 101
